Read-outs that look alike come from different tables or passages of the source.
Experiments:
HDV = HDV infection in primary human hepatocytes (PHHs) and RNA quantification (RT-qPCR); assay type: cell-based; settings: Hepatocyte, 192 h, HDV infection of primary human hepatocytes, viral RNA at day 8 post infection
Text: Primary human hepatocytes (Thermo Fisher Scientific) were thawed in Williams E Medium with CM3000 supplement pack (Thermo Fisher Scientific) and seeded at 70,000 cells/well on collagen-coated 96-well plate. Six hours post-seeding, cell medium was changed to Williams E Medium with CM4000 cell maintenance supplement pack for further culture (Thermo Fisher Scientific). HDV virus collected from the supernatants of HuH7-END cells was purified in the presence of 6% polyethylene glycol (PEG). Viral titer was then quantified by RT-qPCR using HDV specific primers against a reference standard. On the day of infection, compounds were 4-fold serially diluted in DMSO and pre-incubated with PHHs for two hours before infecting with 100 GE/cell of HDV in 4% PEG. On day one post infection, HDV-containing media was aspirated, cells were washed once with PBS and then maintained in 2.5% DMSO containing media for the remainder of the assay. Viral RNA was isolated using RNeasy kits at day 8 post infection and reverse transcribed into cDNA using High-Capacity RNA-to-cDNA Kit. Relative HDV gene expression was quantified by RT-qPCR after normalization to expression of a housekeeping gene. Irrespective of readout, compound concentrations that reduce viral RNA by 50% relative to DMSO controls (EC50) are reported. EC50 ranges are as follows: A<0.1 μM; B 0.1-1 μM; C>1 μM.

NTCP = target: T1, NTCP (Homo sapiens, UniProt Q14973); assay: HepG2-NTCP preS1 binding competition assay (FITC-labeled myristoylated preS1 peptide); settings: HepG2-NTCP cells; competition with FITC-labeled preS1 peptide
T1 construct: expressed in transfected cells; host or cells: HepG2-NTCP (clone A3, kept under puromycin)
T1 sequence (Q14973 1-349): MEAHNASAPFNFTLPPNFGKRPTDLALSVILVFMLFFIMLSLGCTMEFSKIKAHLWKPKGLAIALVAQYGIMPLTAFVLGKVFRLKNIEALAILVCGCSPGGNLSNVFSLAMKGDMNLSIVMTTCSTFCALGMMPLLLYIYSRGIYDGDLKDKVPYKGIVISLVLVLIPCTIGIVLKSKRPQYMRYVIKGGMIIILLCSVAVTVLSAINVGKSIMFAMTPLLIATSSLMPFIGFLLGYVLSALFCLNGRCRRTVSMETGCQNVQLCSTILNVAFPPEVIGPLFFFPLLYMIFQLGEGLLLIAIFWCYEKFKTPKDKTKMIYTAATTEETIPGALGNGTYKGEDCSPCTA
Method: HepG2-NTCP preS1 Binding Competition Assay
Myristoylated preS1 peptide (2-48 aa) conjugated to a C-terminal FITC tag was synthesized to evaluate preS1 binding to NTCP-expressing cells. HepG2-NTCP cells seeded in 384-wells were pre-treated with compounds for 2 hours prior to the addition of FITC-labeled preS1 peptide. After co-incubation for 30 minutes, unbound FITC-preS1 peptide was washed twice with PBS, and the fluorescence of preS1-FITC bound to cell surface was detected by Envision plate reader. EC50 ranges are as follows: A<0.1 μM; B 0.1-1 μM; C>1 μM.

HBV = HBV infection in HepG2-NTCP cells (HBeAg AlphaLISA in supernatants); assay type: cell-based; settings: Hepatitis B virus, 192 h
Procedure, shortened: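 HepG2-NTCP A3 cells were pre-incubated 2 h with 3-fold serially diluted compounds, then infected with HBV at 2000 GE/cell with 4% PEG (0.5% DMSO final). After washing on day 1, cells stayed in 2.5% DMSO medium; supernatant HBeAg measured by AlphaLISA on day 8, EC50 versus DMSO controls.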

[1] = Donor 2, read-out: Cellular EC50 (μM) Donor 2
[2] = HBV infection of HepG2-NTCP cells, HBeAg in supernatants at day 8 post infection, read-out: Cellular EC50
[3] = Donor 1, read-out: Cellular EC50 (μM) Donor 1

Compound	EC50 (NTCP) [µM]	EC50 (HBV; [2]) [µM]	EC50 (HDV; [1]) [µM]	EC50 (HBV; read-out: Cellular EC50 (μM)) [µM]	EC50 (HDV; [3]) [µM]
Cc1cc(-c2cc3c(cc2F)N(c2ccccc2)C[C@@H](C2CCCCC2)N(C)S3(=O)=O)sc1C(=O)O [Example 127, (R)-5-(3-cyclohexyl-7-fluoro-2-methyl-1,1-dioxido-5-phenyl-2,3,4,5-tetrahydrobenzo[f][1,2,5]thiadiazepin-8-yl)-3-methylthiophene-2-carboxylic acid]	< 0.1	< 0.1	< 0.1	–	–
CN1[C@H](C2CCCCC2)CN(c2ccccc2)c2cc(F)c(-c3cc(F)c(C(=O)O)s3)cc2S1(=O)=O [Example 128, (R)-5-(3-cyclohexyl-7-fluoro-2-methyl-1,1-dioxido-5-phenyl-2,3,4,5-tetrahydrobenzo[f][1,2,5]thiadiazepin-8-yl)-3-fluorothiophene-2-carboxylic acid]	–	< 0.1	< 0.1	–	–
CCOc1ccccc1N1C[C@@H](C2CCCCC2)N(C)S(=O)(=O)c2cc(-c3ccc(F)c(C(=O)O)c3)c(Cl)cc21 [Example 307]	> 1	–	–	> 1	–
CN1[C@H](C2CCCCC2)CN(c2csc(Cl)c2)c2cc(Cl)c(-c3ccc(F)c(C(=O)O)c3)cc2S1(=O)=O [Example 316, (R)-5-(7-chloro-5-(5-chlorothiophen-3-yl)-3-cyclohexyl-2-methyl-1,1-dioxido-2,3,4,5-tetrahydrobenzo[f][1,2,5]thiadiazepin-8-yl)-2-fluorobenzoic acid]	< 0.1	< 0.1	–	–	–
CN1[C@H](C2CCCCC2)CN(c2nccs2)c2cc(Cl)c(-c3ccc(F)c(C(=O)O)c3)cc2S1(=O)=O [Example 317]	0.1 to 1	0.1 to 1	–	–	–
CN1[C@H](C2CCCCC2)CN(c2ncco2)c2cc(Cl)c(-c3ccc(F)c(C(=O)O)c3)cc2S1(=O)=O [Example 318]	> 1	–	–	> 1	–
CN1[C@H](C2CCCCC2)CN(CC2COC2)c2cc(Cl)c(-c3ccc(F)c(C(=O)O)c3)cc2S1(=O)=O [Example 320]	> 1	–	–	> 1	–
CN1[C@H](C2CCCCC2)CN(C2CCOCC2)c2cc(Cl)c(-c3ccc(F)c(C(=O)O)c3)cc2S1(=O)=O [Example 321]	0.1 to 1	0.1 to 1	–	–	–
CCCCCN1C[C@@H](C2CCCCC2)N(C)S(=O)(=O)c2cc(-c3ccc(F)c(C(=O)O)c3)c(Cl)cc21 [Example 323]	< 0.1	< 0.1	–	–	–
CC(C)CN1C[C@@H](C2CCCCC2)N(C)S(=O)(=O)c2cc(-c3ccc(F)c(C(=O)O)c3)c(Cl)cc21 [Example 325]	< 0.1	< 0.1	–	–	–
CN1[C@H](C2CCCCC2)CN(c2ccccc2)c2cc(OCc3ccsc3)c(-c3ccc(F)c(C(=O)O)c3)cc2S1(=O)=O [Example 336]	–	< 0.1	–	–	< 0.1
COc1cc2c(cc1-c1ccc(F)c(C(=O)O)c1)S(=O)(=O)N(C)[C@H](C1CCCCC1)CN2c1ccccc1 [Example 348]	< 0.1	< 0.1	–	–	–
CCCCCCCOc1cc2c(cc1-c1ccc(F)c(C(=O)O)c1)S(=O)(=O)N(C)[C@H](C1CCCCC1)CN2c1ccccc1 [Example 353]	–	< 0.1	–	–	< 0.1
CN1[C@H](C2CCCCC2)CN(c2ccccc2)c2cc(OC3CC3)c(-c3ccc(F)c(C(=O)O)c3)cc2S1(=O)=O [Example 372]	–	< 0.1	–	–	< 0.1
CN1[C@H](C2CCCCC2)CN(c2ccccc2)c2cc(OC3CCC3)c(-c3ccc(F)c(C(=O)O)c3)cc2S1(=O)=O [Example 376]	–	< 0.1	–	–	< 0.1
CN1[C@H](C2CCCCC2)CN(c2ccccc2)c2cc(OCc3c[nH]cn3)c(-c3ccc(F)c(C(=O)O)c3)cc2S1(=O)=O [Example 391]	> 1	–	–	> 1	–

Second part, led by results:

EC50 (NTCP) [µM]	EC50 (HBV; [2]) [µM]	Compound	EC50 (HDV; [1]) [µM]	EC50 (HBV; read-out: Cellular EC50 (μM)) [µM]	EC50 (HDV; [3]) [µM]
< 0.1	< 0.1	COCCOc1cc2c(cc1-c1ccc(F)c(C(=O)O)c1)S(=O)(=O)N(C)[C@H](C1CCCCC1)CN2c1ccccc1 [Example 388]	–	–	–
< 0.1	< 0.1	COCCOc1cc2c(cc1-c1cc(F)c(C(=O)O)s1)S(=O)(=O)N(C)[C@H](C1CCCCC1)CN2c1ccccc1 [Example 486]	–	–	–
< 0.1	< 0.1	Cc1cc(-c2cc3c(cc2OCC(F)(F)F)N(c2ccccc2)C[C@@H](C2CCCCC2)N(C)S3(=O)=O)sc1C(=O)O [Example 512, (R)-5-(3-cyclohexyl-2-methyl-1,1-dioxido-5-phenyl-7-(2,2,2-trifluoroethoxy)-2,3,4,5-tetrahydrobenzo[f][1,2,5]thiadiazepin-8-yl)-3-methylthiophene-2-carboxylic acid]	–	–	–
–	< 0.1	Cc1cc(-c2cc3c(cc2OCc2ccsc2)N(c2ccccc2)C[C@@H](C2CCCCC2)N(C)S3(=O)=O)sc1C(=O)O [Example 514]	< 0.1	–	< 0.1
< 0.1	0.1 to 1	CCCCC1CN(c2ccccc2)c2cc(CN3CCCC3)c(-c3ccc(F)c(C(=O)O)c3)cc2S(=O)(=O)N1C (centres unmarked) [Example 563, 5-(3-butyl-2-methyl-1,1-dioxido-5-phenyl-7-(pyrrolidin-1-ylmethyl)-2,3,4,5-tetrahydrobenzo[f][1,2,5]thiadiazepin-8-yl)-2-fluorobenzoic acid]	–	–	–
< 0.1	< 0.1	CN1[C@H](C2CCCCC2)CN(c2ccccc2)c2cc(C34CC(C(F)(F)F)(C3)C4)c(-c3ccc(F)c(C(=O)O)c3)cc2S1(=O)=O [Example 595]	–	–	–
0.1 to 1	0.1 to 1	CN1[C@H](C2CCCCC2)CN(c2ccccc2)c2cc(Cl)c([C@H]3C[C@H](C(=O)O)C3)cc2S1(=O)=O [Example 608, (1R,3r)-3-((R)-7-chloro-3-cyclohexyl-2-methyl-1,1-dioxido-5-phenyl-2,3,4,5-tetrahydrobenzo[f][1,2,5]thiadiazepin-8-yl)cyclobutane-1-carboxylic acid]	–	–	–
0.1 to 1	< 0.1	CN1[C@H](C2CCCCC2)CN(c2ccccc2)c2cc(Cl)c(N3C[C@H](C(=O)O)[C@@H](c4ccccc4)C3)cc2S1(=O)=O [Example 612]	–	–	–
0.1 to 1	< 0.1	CN1[C@H](C2CCCCC2)CN(c2ccccc2)c2cc(Cl)c(N3C[C@@H](C(=O)O)[C@H](c4ccccc4)C3)cc2S1(=O)=O [Example 613]	–	–	–
< 0.1	< 0.1	CN1[C@H](C2CCCCC2)CN(c2ccccc2)c2cc(Cl)c(N3C[C@H](C(=O)O)[C@@H](C(F)(F)F)C3)cc2S1(=O)=O [Example 614]	–	–	–
< 0.1	0.1 to 1	CN1[C@H](C2CCCCC2)CN(c2ccccc2)c2cc(Cl)c(N3C[C@H]4C[C@@]4(C(=O)O)C3)cc2S1(=O)=O [Example 615]	–	–	–
